# From patent publication US20080032965A1, “Method for enhancing cognitive function” (priority 2006, published 2008)
# Like-named read-outs stand apart in the source and are kept apart here.
# Experiments:
# 5-HT1A = target: T1, 5-HT1A (Homo sapiens, UniProt P08908)
# T1 sequence (P08908 1-422): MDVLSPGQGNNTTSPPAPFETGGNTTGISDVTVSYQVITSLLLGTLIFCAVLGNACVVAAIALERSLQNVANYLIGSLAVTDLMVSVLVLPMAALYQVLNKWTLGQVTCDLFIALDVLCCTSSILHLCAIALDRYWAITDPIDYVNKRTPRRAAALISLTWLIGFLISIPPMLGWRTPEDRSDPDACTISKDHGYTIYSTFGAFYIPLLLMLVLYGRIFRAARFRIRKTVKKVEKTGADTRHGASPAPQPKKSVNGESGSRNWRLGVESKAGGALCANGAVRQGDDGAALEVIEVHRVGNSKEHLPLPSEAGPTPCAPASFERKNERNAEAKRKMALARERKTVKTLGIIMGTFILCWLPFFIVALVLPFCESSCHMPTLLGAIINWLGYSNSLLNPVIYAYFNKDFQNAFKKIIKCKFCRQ
# *1^A = conditions: Table 4; cited from earlier work
# recognition memory [1] = experiment: Novel Object Recognition Model (Example 1); format: in vivo, rats; conditions: for effect on the cognitive enhancing properties of Aricept in the Novel Object Recognition Model: co-administered with Aricept, lowers dose of both agents required for efficacy
# Description: (§1) Novel Object Recognition Model: Male Long-Evans hooded rats (˜200 g at the time of testing) were individually housed with ad libitum access to food and water. Novel object recognition (NOR) training and testing was performed in a circular field (diameter ˜70 cm, 30 cm high) constructed out of plastic and containing soiled bedding (without feces). The field was surrounded by black curtains to mask extra-field cues and was located in a dimly lit room (˜10 lux at the level of the area) in the presence of white noise (˜65 dB). Animal performance was tracked by video and monitored by an experimenter located outside of the testing room. Objects, constructed with Duplo® blocks (Lego), could be affixed to the floor in one of four locations spaced evenly around the field approximately 10 cm from the field's edge. To avoid possible olfactory cues, multiple copies of the objects were used throughout the study and were cleaned with a 30% ethanol solution between animals.
# The visual recognition task was divided into 3 sessions—habituation, a sample trial and a choice trial. During habituation the animals were placed into the field containing 2 identical yellow cubes (˜10 cm×10 cm×10 cm) and were allowed to explore the field for ten minutes. Following habituation, rats were returned to their home cage. One day after habituation, animals were dosed with drug (either a 5-HT1A antagonist compound, a cognitive enhancer or both a 5-HT1A antagonist compound and a cognitive enhancer) and following the pretreatment interval the sample trial was initiated. […] The amount of time investigating the objects was recorded for the entire trial. […]
# (§2) The effect of treatment on object exploration during trial one was examined using a one-way ANOVA on total contact time followed by Fisher's LSD group mean pair-wise comparisons. The amount of time exploring the novel and familiar objects across treatment groups was analyzed using a repeated measures ANOVA followed by Fisher's LSD post-hoc comparisons. […]
# D2 = D2 (Homo sapiens, UniProt P14416); conditions: read-out: Ki (nM) D2; Table 2; cited from earlier work
# a1 = conditions: Table 2; cited from earlier work
# recognition memory [2] = experiment: Novel Object Recognition, Compound 405 with Aricept (Example 2); format: in vivo, mice; conditions: compared between vehicle, Aricept 0.5 mg/kg, Compound 405 0.3 mg/kg and combination groups
# Description: as §1, with “Objects, constructed with Duplo® blocks (Lego), could be affixed to the floor in one of four locations spaced evenly around the field approximately 10 cm from the field's edge. To avoid possible olfactory cues, multiple copies of the objects were used throughout the study and were cleaned with a 30% ethanol solution between animals.” left out
# The visual recognition task was divided into 3 sessions—habituation, a sample trial and a choice trial. […] The amount of time investigating the objects was recorded for the entire trial. […]
# as §2
# Cognitive enhancement was measured using the Novel Object Recognition procedure described in Example 1. […]
# 5-HT2A = 5-HT2A (Homo sapiens, UniProt P28223); conditions: read-out: Ki (nM) 5-HT2A; Table 1; cited from earlier work
# [3] = Table 2; read-out: Ki (nM) 5-HT1A; cited from earlier work
# [4] = read-out: Ki (nM) 5-HT1A; Table 4; cited from earlier work
# [5] = Table 3; read-out: IC50 (nM) 5-HT1A; cited from earlier work
# [6] = read-out: Ki (nM) 5-HT1A; Table 2; cited from earlier work
# 5-HT2A, sequence (P28223 whole entry): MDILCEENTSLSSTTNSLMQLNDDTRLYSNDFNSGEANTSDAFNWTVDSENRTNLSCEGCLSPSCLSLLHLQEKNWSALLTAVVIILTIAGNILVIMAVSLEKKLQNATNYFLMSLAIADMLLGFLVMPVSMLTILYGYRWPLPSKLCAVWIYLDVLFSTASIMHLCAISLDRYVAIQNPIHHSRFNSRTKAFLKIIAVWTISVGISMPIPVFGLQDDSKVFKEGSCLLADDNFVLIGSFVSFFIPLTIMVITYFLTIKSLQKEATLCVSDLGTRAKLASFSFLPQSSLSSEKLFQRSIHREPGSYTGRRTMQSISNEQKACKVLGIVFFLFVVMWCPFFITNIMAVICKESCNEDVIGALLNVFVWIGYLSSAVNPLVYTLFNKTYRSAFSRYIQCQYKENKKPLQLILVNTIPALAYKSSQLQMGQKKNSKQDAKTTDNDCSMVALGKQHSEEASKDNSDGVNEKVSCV
# D2, sequence (P14416 whole entry): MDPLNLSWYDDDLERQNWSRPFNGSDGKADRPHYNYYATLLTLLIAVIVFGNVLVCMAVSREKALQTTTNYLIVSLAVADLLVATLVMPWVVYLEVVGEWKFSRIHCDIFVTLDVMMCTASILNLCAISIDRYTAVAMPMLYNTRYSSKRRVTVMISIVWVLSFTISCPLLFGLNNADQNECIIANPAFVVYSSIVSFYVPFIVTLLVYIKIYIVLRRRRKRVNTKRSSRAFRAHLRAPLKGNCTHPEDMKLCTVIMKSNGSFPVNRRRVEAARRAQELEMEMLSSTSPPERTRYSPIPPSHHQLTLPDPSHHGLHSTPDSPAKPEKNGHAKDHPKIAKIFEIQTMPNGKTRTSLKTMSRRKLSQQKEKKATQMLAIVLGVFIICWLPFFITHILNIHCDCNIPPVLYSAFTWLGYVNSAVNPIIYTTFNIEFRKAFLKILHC
smiles,measurement,setting,value
CS(=O)(=O)Oc1ccccc1N1CCN(CN(C(=O)C2CCCCC2)c2ccccn2)CC1 [Compound 122],Ki,5-HT1A; [3],7.25 nM
COc1ccccc1N1CCN(CCCSc2nc(N)c3c(C)c(C)sc3n2)CC1 [Compound 135],Ki,5-HT1A; [4],2.45 nM
same,Ki,*1^A,10.8 nM
COc1cc(N2CCN(C3CCN(c4ccc(F)c5cccnc45)CC3)CC2)c2ncccc2c1 [5-fluoro-8-(4-(4-(6-methoxyquinolin-8-yl)piperazin-1-yl)piperidin-1-yl)quinoline],effect on the cognitive enhancing properties of Aricept in the Novel Object Recognition Model,recognition memory [1],synergistic effect
OC1(c2ccc3c(c2)OCO3)CCC(N2CCN(Cc3ccccc3)CC2)CC1 (stereo not shown) [Compound 112],IC50,5-HT1A; [5],20 nM
COc1ccccc1N1CCN(CC(C(=O)NC(C)(C)C)c2ccccc2)CC1 (racemic) [Compound Y (S)],Ki,5-HT1A; [6],22 nM
same,Ki,D2,20 nM
same,Ki,a1,1440 nM
COc1ccc(C2(O)CCC(N3CCN(Cc4ccccc4)CC3)CC2)cc1 (stereo not shown) [Compound 113],IC50,5-HT1A; [5],50 nM
COc1ccccc1N1CCN(CC(C(=O)NC(C)(C)C)c2ccccc2)CC1 (racemic) [Compound Y (R)],Ki,5-HT1A; [6],104 nM
same,Ki,D2,4 nM
same,Ki,a1,1240 nM
"COc1cc2c(cc1OC)C(=O)C(CC1CCN(Cc3ccccc3)CC1)C2 (stereo not shown) [Aricept®, donepezil]","contact times familiar vs novel, administered separately","recognition memory [1]; sub-threshold doses: Aricept 0.5 mg/kg i.p. or 5-HT1A antagonist 0.1 mg/kg p.o., 48 hour inter-trial interval",not statistically different
same,exploration time (FIG. 1),recognition memory [2],relatively similar
COc1cccc(CN2CCN(C3CCC(O)(c4ccc5c(c4)OCO5)CC3)CC2)c1 (stereo not shown) [Compound 114],IC50,5-HT1A; [5],2.2 nM
COc1ccccc1N1CCN(CCN(C(=O)c2ccc(F)cc2)c2ccccn2)CC1 [Compound 127],Ki,5-HT1A; [3],3.3 nM
COc1ccccc1N1CCN(CCCn2c(=O)ccc(=O)n2-c2ccccc2)CC1 [Compound 105],Ki,5-HT2A,2120 nM
COc1ccccc1N1CCN(CCCSc2nc3sc4c(c3c(=O)n2N)CCC4)CC1 [Compound 129],Ki,5-HT1A; [4],9.26 nM
same,Ki,*1^A,7.39 nM
COc1cc(N2CCN(C3CCN(c4ccc(F)c5c(OC)cc(C(F)(F)F)nc45)CC3)CC2)c2ncccc2c1 [5-fluoro-4-methoxy-8-(4-(4-(6-methoxyquinolin-8-yl)piperazin-1-yl)piperidin-1-yl)-2-(trifluoromethyl)quinoline],effect on the cognitive enhancing properties of Aricept in the Novel Object Recognition Model,recognition memory [1],synergistic effect
CCOc1ccccc1-c1nnc(SCCCN2CCN(c3ccccc3[N+](=O)[O-])CC2)s1 [Compound 137],Ki,5-HT1A; [4],135 nM
same,Ki,*1^A,437 nM
"C[C@H](CN(C(=O)C1CCCCC1)c1ccccn1)N1CCN(c2cccc3[nH]ccc23)CC1 [Compound 405, (R)-N-(2-methyl-(4-indolyl-1-piperazinyl)ethyl)-N-(2-pyridinyl)cyclohexane carboxamide]",exploration time (FIG. 1),recognition memory [2],relatively similar
COc1ccccc1N1CCN(CC(C(=O)NC2CCCCC2)c2ccccc2)CC1 (stereo not shown) [Compound 118],Ki,5-HT1A; [6],10 nM
same,Ki,a1,1870 nM
COc1ccccc1N1CCN(CN(C(=O)C2CCCCC2)c2ccccn2)CC1 [Compound X],Ki,5-HT1A; [6],0.24 nM
same,Ki,D2,79 nM
same,Ki,a1,45 nM
O=C(C1CCCCC1)N(CN1CCN(c2ccccc2OS(=O)(=O)C(F)(F)F)CC1)c1ccccn1 [Compound 123],Ki,5-HT1A; [3],36 nM
COc1ccccc1N1CCN(CCN(C(=O)c2cccc(I)c2)c2ccccn2)CC1 [Compound 125],Ki,5-HT1A; [3],1.7 nM
COc1ccccc1N1CCN(CCN(C(=O)c2ccc(I)cc2)c2ccccn2)CC1 [Compound 124],Ki,5-HT1A; [6],2.6 nM
same,Ki,D2,19 nM
same,Ki,a1,35 nM
O=c1ccc(=O)n(-c2ccccc2)n1CCCCN1CCN(c2cccc(Cl)c2)CC1 [Compound 104],Ki,5-HT2A,1830 nM
COc1ccccc1N1CCN(CC(C(=O)NC(C)(C)C)c2ccccc2)CC1 (racemic) [Compound Y (±)],Ki,5-HT1A; [6],20 nM
same,Ki,D2,14 nM
same,Ki,a1,718 nM
COc1ccccc1N1CCN(CCCCn2c(=O)ccc(=O)n2-c2ccccc2)CC1 [Compound 106],Ki,5-HT1A; read-out: Ki (nM) 5-HT1A; Table 1; cited from earlier work,51 nM
same,Ki,5-HT2A,1450 nM
O=C(C1CCCCC1)N(CN1CCN(c2ccccc2O)CC1)c1ccccn1 [Compound 119],IC50,"5-HT1A; Table 2, starred value; read-out: 5-HT1A, data expressed as IC50 value (*); cited from earlier work",2.1 nM
